# In patent US7855196B2 (priority 2005, dated 2010):
# Where two headings read alike, the source gives them in different places.
# Key:
# [1] = Sedation / side effects observed in treated patients (clinical case examples)
smiles,measurement,setting,value
"Cc1nnc2n1-c1ccc(Cl)cc1C(c1ccccc1)=NC2 [alprazolam, 8-chloro-1-methyl-6-phenyl-4H-s-triazolo[4,3-a][1,4] benzodiazepine]",sedation limiting augmentation of dosage,[1]; Example 1: alprazolam 0.5 mg TID and 2 mg HS,severe patient sedation
same,sedation limiting augmentation of dosage,[1]; Example 2: alprazolam 0.25 mg QID,severe sedation
same,side effects,[1]; Example 8: alprazolam 5 mg/day,experienced alprazolam side effects
same,pain rating after treatment,"human, in vivo",4/10
same,pain remission,"human, in vivo",increased period of pain remission
same,pain response,"human, in vivo",sustained results
CCOC(=O)c1ncn2c1CN(C)C(=O)c1cc(F)ccc1-2 [flumazenil],low back pain after injection,"Example 3: phantom-like pain, patient on alprazolam 6 mg a day, flumazenil 100 μg, 5 minutes after injection, before 7/10",5/10
same,effect on midazolam response to pain,Example 4: flumazenil 200 μg iv 5 minutes after midazolam 2 mg iv (ratio 10:1),without altering the midazolam response to pain
same,pain after treatment,"Example 5: flumazenil 200 μg iv after midazolam 2 mg iv, before 3/10",pain disappeared
same,pain 25 minutes after treatment,"Example 8: further flumazenil 300 μg iv after midazolam 5 mg and flumazenil 500 μg, 25 minutes after treatment",4/10
same,pain rating after treatment,"Example 8: further flumazenil 300 μg iv ten minutes later, after 5 minutes, before 5/10",3/10
same,pain level while moving arm,"human, in vivo, iv",1/10
Cc1ncc2n1-c1ccc(Cl)cc1C(c1ccccc1F)=NC2 [midazolam],sedation,[1]; Example 2: midazolam 2 mg iv,experienced sedation
same,sedation,[1]; Example 5: midazolam 2 mg iv,did not present any signs of sedation
same,improvement of pain,"human, in vivo, iv",40%
same,level of pain after treatment,"human, in vivo, iv",3/10
same,pain level after treatment,"human, in vivo, iv",0/10
same,pain rating after treatment,"human, in vivo, iv",3/10
